“And” between values parts separate entries of the source, which are not always exact repeats. Equal entries are not always repeated.
Legend:
Experiment in all cases: cells
A498 = type: functional, cell-based, Homo sapiens
Description: SANGER: Inhibition of human A498 cell growth in a cell viability assay.

DMS-79 = type: functional, cell-based; details: Homo sapiens
Description: SANGER: Inhibition of human DMS-79 cell growth in a cell viability assay.

NCI-H2030 = type: functional, cell-based, Homo sapiens
Description: SANGER: Inhibition of human NCI-H2030 cell growth in a cell viability assay.

Hs-578T = type: functional, cell-based, Homo sapiens
Description: SANGER: Inhibition of human Hs-578-T cell growth in a cell viability assay.

BT-474 = type: functional, cell-based, Homo sapiens
Description: SANGER: Inhibition of human BT-474 cell growth in a cell viability assay.

EKVX = type: functional, cell-based, Homo sapiens
Description: SANGER: Inhibition of human EKVX cell growth in a cell viability assay.

Calu-3 = type: functional, cell-based, Homo sapiens
Description: SANGER: Inhibition of human Calu-3 cell growth in a cell viability assay.

TGBC24TKB = type: functional, cell-based, Homo sapiens
Description: SANGER: Inhibition of human TGBC24TKB cell growth in a cell viability assay.

NCI-H226 = type: functional, cell-based, Homo sapiens
Description: SANGER: Inhibition of human NCI-H226 cell growth in a cell viability assay.

SK-MEL3 = type: functional, cell-based, Homo sapiens, SK-MEL-3
Description: SANGER: Inhibition of human SK-MEL-3 cell growth in a cell viability assay.

C-33-A = type: functional, cell-based, Homo sapiens
Description: SANGER: Inhibition of human C-33-A cell growth in a cell viability assay.

SW1088 = type: functional, cell-based, Homo sapiens
Description: SANGER: Inhibition of human SW1088 cell growth in a cell viability assay.

A673 = type: functional, cell-based, Homo sapiens
Description: SANGER: Inhibition of human A673 cell growth in a cell viability assay.

PANC-03-27 = type: functional, cell-based, Homo sapiens
Description: SANGER: Inhibition of human PANC-03-27 cell growth in a cell viability assay.

HLE = type: functional, cell-based, Homo sapiens
Description: SANGER: Inhibition of human HLE cell growth in a cell viability assay.

LN-405 = type: functional, cell-based, Homo sapiens
Description: SANGER: Inhibition of human LN-405 cell growth in a cell viability assay.

SNB-75 = type: functional, cell-based, Homo sapiens
Description: SANGER: Inhibition of human SNB75 cell growth in a cell viability assay.

HT-1376 = type: functional, cell-based, Homo sapiens
Description: SANGER: Inhibition of human HT-1376 cell growth in a cell viability assay.

8305C = type: functional, cell-based, Homo sapiens
Description: SANGER: Inhibition of human 8305C cell growth in a cell viability assay.

NCI-H2052 = type: functional, cell-based, Homo sapiens
Description: SANGER: Inhibition of human NCI-H2052 cell growth in a cell viability assay.

CAL-27 = type: functional, cell-based, Homo sapiens
Description: SANGER: Inhibition of human CAL-27 cell growth in a cell viability assay.

CAMA-1 = type: functional, cell-based, Homo sapiens
Description: SANGER: Inhibition of human CAMA-1 cell growth in a cell viability assay.

Mo = type: functional, cell-based; details: Homo sapiens
Description: SANGER: Inhibition of human Mo-T cell growth in a cell viability assay.

SW13 = type: functional, cell-based, Homo sapiens
Description: SANGER: Inhibition of human SW13 cell growth in a cell viability assay.

TCC-SUP = type: functional, cell-based, Homo sapiens
Description: SANGER: Inhibition of human TCCSUP cell growth in a cell viability assay.

COLO-679 = type: functional, cell-based, Homo sapiens
Description: SANGER: Inhibition of human COLO-679 cell growth in a cell viability assay.

MDA-MB-361 = type: functional, cell-based, Homo sapiens
D-336MG = type: functional, cell-based, Homo sapiens
Description: SANGER: Inhibition of human D-336MG cell growth in a cell viability assay.

D-392MG = type: functional, cell-based, Homo sapiens
EW-24 = type: functional, cell-based; details: Homo sapiens
Description: SANGER: Inhibition of human EW-24 cell growth in a cell viability assay.

BEN = type: functional, cell-based, Homo sapiens
Description: SANGER: Inhibition of human BEN cell growth in a cell viability assay.

SK-HEP1 = type: functional, cell-based, Homo sapiens, SK-HEP-1
Description: SANGER: Inhibition of human SK-HEP-1 cell growth in a cell viability assay.

NCI-H596 = type: functional, cell-based, Homo sapiens
Description: SANGER: Inhibition of human NCI-H596 cell growth in a cell viability assay.

A-431 = type: functional, cell-based, Homo sapiens
Description: SANGER: Inhibition of human A431 cell growth in a cell viability assay.

COR-L105 = type: functional, cell-based, Homo sapiens
Description: SANGER: Inhibition of human COR-L105 cell growth in a cell viability assay.

CAL-54 = type: functional, cell-based, Homo sapiens
Description: SANGER: Inhibition of human CAL-54 cell growth in a cell viability assay.

MSTO-211H = type: functional, cell-based, Homo sapiens
Description: SANGER: Inhibition of human MSTO-211H cell growth in a cell viability assay.

RERF-LC-MS = type: functional, cell-based, Homo sapiens
Description: SANGER: Inhibition of human RERF-LC-MS cell growth in a cell viability assay.

PC-14 = type: functional, cell-based, Homo sapiens
Description: SANGER: Inhibition of human PC-14 cell growth in a cell viability assay.

LU-99A = type: functional, cell-based, Homo sapiens
Description: SANGER: Inhibition of human LU-99A cell growth in a cell viability assay.

HSC-3 = type: functional, cell-based, Homo sapiens
Description: SANGER: Inhibition of human HSC-3 cell growth in a cell viability assay.

MDA-MB-415 = type: functional, cell-based; details: Homo sapiens
DK-MG = type: functional, cell-based, Homo sapiens
Description: SANGER: Inhibition of human DK-MG cell growth in a cell viability assay.

C3A = type: functional, cell-based, Homo sapiens
Description: SANGER: Inhibition of human C3A cell growth in a cell viability assay.

SN12C = type: functional, cell-based, Homo sapiens
Description: SANGER: Inhibition of human SN12C cell growth in a cell viability assay.

QIMR-WIL = type: functional, cell-based; details: Homo sapiens
Description: SANGER: Inhibition of human QIMR-WIL cell growth in a cell viability assay.

EC-GI-10 = type: functional, cell-based, Homo sapiens
Description: SANGER: Inhibition of human EC-GI-10 cell growth in a cell viability assay.

EW-1 = type: functional, cell-based, Homo sapiens
Description: SANGER: Inhibition of human EW-1 cell growth in a cell viability assay.

no-10 = type: functional, cell-based, Homo sapiens
Description: SANGER: Inhibition of human no-10 cell growth in a cell viability assay.

SW1417 = type: functional, cell-based, Homo sapiens
Description: SANGER: Inhibition of human SW1417 cell growth in a cell viability assay.

## COC(=O)CNC(=O)C(=O)OC
A498; Homo sapiens, A498
  IC50: 663 µM
DMS-79
  IC50: > 4000 µM
NCI-H2030; Homo sapiens, NCI-H2030
  IC50: 105 µM
Hs-578T; Homo sapiens, Hs-578T
  IC50: 3120 µM
BT-474; Homo sapiens, BT-474
  IC50: > 4000 µM
EKVX; Homo sapiens, EKVX
  IC50: 513 µM
Calu-3; Homo sapiens, Calu-3
  IC50: 65.7 µM
TGBC24TKB; Homo sapiens, TGBC24TKB
  IC50: > 4000 µM
NCI-H226; Homo sapiens, NCI-H226
  IC50: > 4000 µM
SK-MEL3; Homo sapiens, SK-MEL3
  IC50: 279 µM
C-33-A; Homo sapiens, C-33-A
  IC50: > 4000 µM
SW1088; Homo sapiens, SW1088
  IC50: 2720 µM
A673; Homo sapiens, A673
  IC50: 526 µM
PANC-03-27; Homo sapiens, PANC-03-27
  IC50: 672 µM
HLE; Homo sapiens, HLE
  IC50: 57.7 µM
LN-405; Homo sapiens, LN-405
  IC50: 1610 µM
SNB-75; Homo sapiens, SNB-75
  IC50: 438 µM
HT-1376; Homo sapiens, HT-1376
  IC50: 389 µM
8305C; Homo sapiens, 8305C
  IC50: 603 µM
NCI-H2052; Homo sapiens, NCI-H2052
  IC50: 2880 µM
CAL-27; Homo sapiens, CAL-27
  IC50: > 4000 µM
CAMA-1; Homo sapiens, CAMA-1
  IC50: > 4000 µM
Mo
  IC50: 1880 µM
SW13; Homo sapiens, SW13
  IC50: 639 µM
TCC-SUP; Homo sapiens, TCC-SUP
  IC50: 432 µM
COLO-679; Homo sapiens, COLO-679
  IC50: 157 µM
MDA-MB-361; Homo sapiens, MDA-MB-361
  IC50: 1690 µM
D-336MG; Homo sapiens, D-336MG
  IC50: > 4000 µM
D-392MG; Homo sapiens, D-392MG
  IC50: 1570 µM
EW-24
  IC50: 2290 µM
BEN; Homo sapiens, BEN
  IC50: 36.8 µM
SK-HEP1; Homo sapiens, SK-HEP1
  IC50: 84.2 µM
NCI-H596; Homo sapiens, NCI-H596
  IC50: > 4000 µM
A-431; Homo sapiens, A-431
  IC50: 97.5 µM
COR-L105; Homo sapiens, COR-L105
  IC50: 26.4 µM
CAL-54; Homo sapiens, CAL-54
  IC50: 1250 µM
MSTO-211H; Homo sapiens, MSTO-211H
  IC50: > 4000 µM
RERF-LC-MS; Homo sapiens, RERF-LC-MS
  IC50: 1670 µM
PC-14; Homo sapiens, PC-14
  IC50: > 4000 µM
LU-99A; Homo sapiens, LU-99A
  IC50: 197 µM
HSC-3; Homo sapiens, HSC-3
  IC50: 618 µM
MDA-MB-415
  IC50: 2930 µM
DK-MG; Homo sapiens, DK-MG
  IC50: 526 µM
C3A; Homo sapiens, C3A
  IC50: 159 µM
SN12C; Homo sapiens, SN12C
  IC50: 257 µM
QIMR-WIL
  IC50: 424 µM
EC-GI-10; Homo sapiens, EC-GI-10
  IC50: > 4000 µM
EW-1; Homo sapiens, EW-1
  IC50: 977 µM
no-10; Homo sapiens
  IC50: 995 µM

## Cc1cc([C@@H](C)Nc2ccccc2C(=O)O)c2nc(N3CCOCC3)cc(=O)n2c1 [AZD-6482]
A498; a498
  IC50: 0.118 µM and 0.459 µM
DMS-79
  IC50: > 5.12 µM
NCI-H2030; Homo sapiens, NCI-H2030
  IC50: 2.9 µM
NCI-H2030; nci-h2030
  IC50: 2.69 µM
Hs-578T; hs-578-t
  IC50: > 5.12 µM and 3.5 µM
SW1417; sw1417
  IC50: > 5.12 µM
BT-474; bt-474
  IC50: > 5.12 µM
EKVX; ekvx
  IC50: > 5.12 µM
Calu-3; calu-3
  IC50: 3.44 µM and > 5.12 µM
TGBC24TKB; tgbc24tkb
  IC50: > 5.12 µM
NCI-H226; Homo sapiens, NCI-H226
  IC50: > 5.12 µM
NCI-H226; nci-h226
  IC50: > 5.12 µM
SK-MEL3; Homo sapiens, SK-MEL3
  IC50: > 5.12 µM
SK-MEL3; sk-mel-3
  IC50: > 5.12 µM
C-33-A; c-33-a
  IC50: > 5.12 µM
SW1088; Homo sapiens, SW1088
  IC50: 2.48 µM
SW1088; sw1088
  IC50: 2.01 µM
A673; Homo sapiens, A673
  IC50: > 5.12 µM
A673; a673
  IC50: > 5.12 µM
PANC-03-27; Homo sapiens, PANC-03-27
  IC50: > 5.12 µM
PANC-03-27; panc-03-27
  IC50: 4.4 µM
HLE; hle
  IC50: > 5.12 µM
LN-405; Homo sapiens, LN-405
  IC50: 2.44 µM
LN-405; ln-405
  IC50: 2.9 µM
SNB-75; Homo sapiens, SNB-75
  IC50: 1.67 µM
SNB-75; snb-75
  IC50: 3.15 µM
HT-1376; ht-1376
  IC50: > 5.12 µM
8305C; 8305c
  IC50: > 5.12 µM
NCI-H2052; nci-h2052
  IC50: > 5.12 µM and 0.915 µM
CAL-27; Homo sapiens, CAL-27
  IC50: > 5.12 µM
CAL-27; cal-27
  IC50: > 5.12 µM
CAMA-1; cama-1
  IC50: 1.2 µM and > 5.12 µM
Mo
  IC50: > 5.12 µM
SW13; Homo sapiens, SW13
  IC50: > 5.12 µM
SW13; sw13
  IC50: > 5.12 µM
TCC-SUP; tcc-sup
  IC50: > 5.12 µM
COLO-679; Homo sapiens, COLO-679
  IC50: > 5.12 µM
COLO-679; colo-679
  IC50: > 5.12 µM
MDA-MB-361; Homo sapiens, MDA-MB-361
  IC50: 3.53 µM
MDA-MB-361; mda-mb-361
  IC50: > 5.12 µM
D-336MG; d-336mg
  IC50: 1.67 µM and 3.43 µM
D-392MG; d-392mg
  IC50: > 5.12 µM
EW-24
  IC50: > 5.12 µM
BEN; ben
  IC50: > 5.12 µM
SK-HEP1; Homo sapiens, SK-HEP1
  IC50: > 5.12 µM
SK-HEP1; sk-hep-1
  IC50: > 5.12 µM
NCI-H596; nci-h596
  IC50: > 5.12 µM
A-431; a-431
  IC50: > 5.12 µM
COR-L105; cor-l105
  IC50: > 5.12 µM
CAL-54; cal-54
  IC50: > 5.12 µM and 1.25 µM
MSTO-211H; msto-211h
  IC50: > 5.12 µM
RERF-LC-MS; rerf-lc-ms
  IC50: > 5.12 µM and 4.34 µM
PC-14; pc-14
  IC50: > 5.12 µM
LU-99A; lu-99a
  IC50: > 5.12 µM
HSC-3; hsc-3
  IC50: > 5.12 µM
DK-MG; dk-mg
  IC50: > 5.12 µM
C3A; c3a
  IC50: > 5.12 µM
SN12C; sn12c
  IC50: > 5.12 µM
QIMR-WIL
  IC50: 3.97 µM
EC-GI-10; ec-gi-10
  IC50: > 5.12 µM
EW-1; ew-1
  IC50: > 5.12 µM
no-10
  IC50: > 5.12 µM
no-10; Homo sapiens
  IC50: > 5.12 µM

## Cn1cc(C2=C(c3ccc(Cl)cc3Cl)C(=O)NC2=O)c2ccccc21 [SB-216763]
A498; Homo sapiens, A498
  IC50: > 10 µM
DMS-79
  IC50: > 10 µM
NCI-H2030; Homo sapiens, NCI-H2030
  IC50: > 10 µM
Hs-578T; Homo sapiens, Hs-578T
  IC50: > 10 µM
SW1417; Homo sapiens, SW1417
  IC50: > 10 µM
BT-474; Homo sapiens, BT-474
  IC50: > 10 µM
EKVX; Homo sapiens, EKVX
  IC50: > 10 µM
Calu-3; Homo sapiens, Calu-3
  IC50: > 10 µM
TGBC24TKB; Homo sapiens, TGBC24TKB
  IC50: > 10 µM
NCI-H226; Homo sapiens, NCI-H226
  IC50: > 10 µM
SK-MEL3; Homo sapiens, SK-MEL3
  IC50: > 10 µM
C-33-A; Homo sapiens, C-33-A
  IC50: > 10 µM
SW1088; Homo sapiens, SW1088
  IC50: > 10 µM
A673; Homo sapiens, A673
  IC50: > 10 µM
PANC-03-27; Homo sapiens, PANC-03-27
  IC50: > 10 µM
HLE; Homo sapiens, HLE
  IC50: > 10 µM
LN-405; Homo sapiens, LN-405
  IC50: > 10 µM
SNB-75; Homo sapiens, SNB-75
  IC50: > 10 µM
HT-1376; Homo sapiens, HT-1376
  IC50: > 10 µM
8305C; Homo sapiens, 8305C
  IC50: > 10 µM
NCI-H2052; Homo sapiens, NCI-H2052
  IC50: > 10 µM
CAL-27; Homo sapiens, CAL-27
  IC50: > 10 µM
CAMA-1; Homo sapiens, CAMA-1
  IC50: > 10 µM
Mo
  IC50: > 10 µM
SW13; Homo sapiens, SW13
  IC50: > 10 µM
TCC-SUP; Homo sapiens, TCC-SUP
  IC50: > 10 µM
COLO-679; Homo sapiens, COLO-679
  IC50: > 10 µM
MDA-MB-361; Homo sapiens, MDA-MB-361
  IC50: > 10 µM
D-336MG; Homo sapiens, D-336MG
  IC50: > 10 µM
D-392MG; Homo sapiens, D-392MG
  IC50: > 10 µM
EW-24
  IC50: > 10 µM
BEN; Homo sapiens, BEN
  IC50: > 10 µM
SK-HEP1; Homo sapiens, SK-HEP1
  IC50: > 10 µM
NCI-H596; Homo sapiens, NCI-H596
  IC50: > 10 µM
A-431; Homo sapiens, A-431
  IC50: > 10 µM
COR-L105; Homo sapiens, COR-L105
  IC50: > 10 µM
CAL-54; Homo sapiens, CAL-54
  IC50: > 10 µM
MSTO-211H; Homo sapiens, MSTO-211H
  IC50: > 10 µM
RERF-LC-MS; Homo sapiens, RERF-LC-MS
  IC50: > 10 µM
PC-14; Homo sapiens, PC-14
  IC50: > 10 µM
LU-99A; Homo sapiens, LU-99A
  IC50: > 10 µM
HSC-3; Homo sapiens, HSC-3
  IC50: > 10 µM
DK-MG; Homo sapiens, DK-MG
  IC50: > 10 µM
C3A; Homo sapiens, C3A
  IC50: > 10 µM
SN12C; Homo sapiens, SN12C
  IC50: > 10 µM
QIMR-WIL
  IC50: > 10 µM
EC-GI-10; Homo sapiens, EC-GI-10
  IC50: > 10 µM
EW-1; Homo sapiens, EW-1
  IC50: > 10 µM
no-10; Homo sapiens
  IC50: > 10 µM

— ChEMBL document CHEMBL1201861, “Genomics of Drug Sensitity in Cancer screening data, Wellcome Trust Sanger Institute”
